One may read the IC50 as the concentration needed to halve the response being measured.

Molecules are shown by their SMILES.

For the first assay, the target named is T1, human 17βHSD type 3 (Homo sapiens, UniProt P37058).
T1 construct: A full-length cDNA encoding human 17βHSD type 3 used in the pharmacological test; made in house; host or cells: human fetus kidney-derived 293 cells (transfected; supernatant of disrupted cells, not purified)
T1 sequence (P37058 1-310): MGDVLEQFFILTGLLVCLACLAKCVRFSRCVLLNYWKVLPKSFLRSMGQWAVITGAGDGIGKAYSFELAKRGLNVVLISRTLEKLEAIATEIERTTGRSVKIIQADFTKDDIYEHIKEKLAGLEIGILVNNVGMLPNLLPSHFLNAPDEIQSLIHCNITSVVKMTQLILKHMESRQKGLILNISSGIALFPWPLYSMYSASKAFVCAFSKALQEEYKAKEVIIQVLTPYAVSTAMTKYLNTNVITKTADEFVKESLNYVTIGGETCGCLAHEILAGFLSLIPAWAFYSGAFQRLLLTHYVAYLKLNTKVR
As to the kind of experiment: Measurement of enzyme activity of human 17βHSD type 3. The class given is biochemical. The note with it: enzyme source: supernatant of transformed 293 cells; read-out: Type3 IC50. How it is done: A full-length cDNA encoding human 17βHSD type 3 used in the pharmacological test of this test example was obtained by the PCR method using a cDNA derived from human testis as a template. The nucleotide sequence of the obtained cDNA was analyzed by the dideoxyterminator method, and the clone matched with the known human 17βHSD type 3 sequence (GenBank accession No. BC034281) was selected. Subsequently, human fetus kidney-derived cell line, 293 cells, were transformed with a plasmid containing the cDNA, and the cells were collected 24 hours later. […]
Enzyme activity was measured referring to Trevor M. Penning, et al., Biochem. J., 351, 67-77, (2000). Specifically, using a 100 mM potassium phosphate buffer (pH 6.0), (1) the enzyme purified in Section 1 at a final concentration of 10 μg/mL, (2) androstenedione at a final concentration of 300 nM, (3) NADPH at a final concentration of 200 μM, and (4) a test substance, were mixed to react at room temperature for 2 hours, and then the amount of testosterone produced was measured using DELFIA (trademark) Testosterone Reagents R050-201 (manufactured by PerkinElmer). […] Then, IC50 values were calculated by the Logistic regression method.
Regarding `COc1nc2cc(C(F)(F)F)ccc2n1-c1cccc(C(=O)O)c1` [compound 32, 3-[2-methoxy-5-(trifluoromethyl)-1H-benzimidazol-1-yl]benzoic acid], the IC50 was > 10 µM.

As for `O=C(O)c1cccc(-n2c(COc3ccccc3)nc3cc(C(F)(F)F)ccc32)c1` [compound 44, 3-[2-phenoxymethyl-5-(trifluoromethyl)-1H-benzimidazol-1-yl]benzoic acid], the IC50 was > 10 µM.

For a further assay, the system named is testosterone production in the CWR22R tumor. As to the kind of experiment: Testosterone production suppression in the tumor of a CWR22R tumor-bearing mouse. The class given is in vivo, nude mouse. The note with it: 22Rv1, 10 mg/kg oral, androstenedione 1 ng/100 mm^3 into the tumor an hour later, dissection an hour after that, read-out: Inh (%) testosterone production suppression rate. An excerpt: Inhibition rate (%)=100×(average value of the hormone concentration in the solvent for administering test substance-administered group−average value of the hormone concentration in the test substance-administered group)/(average value of the hormone concentration in the solvent for administering test substance-administered group−average value of the background hormone concentration)
A CWR22R tumor was excised from a CWR22R subcutaneous tumor-bearing nude mouse. The excised tumor was segmented to become tumor specimens with size of about 5 mm per specimen. The tumor specimens were washed with a 20% serum-containing RPMI1640 culture medium twice and then stirred for about 20 minutes in a 0.1% protease and 20% serum-containing RPMI1640 culture medium. Supernatant was recovered to recover cells through centrifugation. These procedures were repeated as necessary, recovered cells were collected, and thereby the cell solution was prepared. After the cell number was counted, the cell solution was adjusted to 2×10^7 cells/mL. The same amount of the cell solution and Matrigel were mixed and adjusted to the final value of 1×10^7 cells/mL. 0.1 mL of the cell Matrigel mixture prepared in the above-described manner was subcutaneously injected to one site of the back of a male nude mouse with testectomy for the transplant. After the transplant, at a time point when the tumor volume reached 100 mm^3 or more, grouping was performed based on the tumor volume to conduct the following experiments.
Test substances were orally administered to the CWR22R subcutaneous tumor-bearing mouse. After an hour, that is, an hour before dissection, androstenedione was administered into the tumor to yield a level of 1 ng/100 mm^3 in the tumor. The composition of the liquid for administering androstenedione included 0.000075% DMF/0.00005% polysorbate 80/9.999875% saline/90% Matrigel. Tumor excision was performed through the dissection, and the tumor was weighed and then frozen for preservation. For the purpose of measuring the background value, the tumor of the mouse to which only the solvent for administering test substances had been orally administered was excised. Subsequently, under the ice cooling, the liquid for administering androstenedione was added thereto, and the resultant was subjected to quick-freezing for preservation.
To the tumor sample preserved through freezing was added a 0.2 M Na-K phosphate buffer (pH 7.4), and thereby a tumor homogenate was prepared under ice cooling by using a homogenizer (polytron). Tert-butyl methyl ether with a 6-fold capacity was added to the tumor homogenate, followed by centrifugation (3000 rpm, 5 min), and the supernatant was transferred to another test tube. While the test tube was maintained at 40° C. in a heat block, the solvent was evaporated by nitrogen gas. 2% BSA-containing 10 mM Tris-Cl buffer (pH 7.4) was added to the test tube and mixed to obtain an extract, and the testosterone concentration was measured by using DELFIA (trademark) Testosterone Reagents R050-201 (manufactured by PerkinElmer, Inc.).
The testosterone production suppression rates (%) of some Reference Example compounds in the tumor of CWR22R tumor-bearing mouse are shown in Table 25. Ex represents a Reference Example number, Inh represents the testosterone production suppression rates upon administration of 10 mg/kg of the Reference Example compounds.
Consider `COCCc1cn(-c2cccc(C(=O)O)c2)c2ccc(C(F)(F)F)cc12` [Reference Example 47, 3-[3-(2-methoxyethyl)-5-(trifluoromethyl)-1H-indol-1-yl]benzoic acid], for which the inhibition at 10 mg/kg was determined as 33%.

Regarding `O=C(O)c1cccc(-n2c(C(F)(F)F)nc3cc(C(F)(F)F)ccc32)c1` [Reference Example 54, 3-[2,5-bis(trifluoromethyl)-1H-benzimidazol-1-yl]benzoic acid], the inhibition at 10 mg/kg was 99%.

Take `O=C(O)c1cccc(-n2c(-c3ccccc3)nc3cc(C(F)(F)F)ccc32)c1` [compound 17, 3-[2-phenyl-5-(trifluoromethyl)-1H-benzimidazol-1-yl]benzoic acid]: the inhibition at 10 mg/kg stood at 75%.

Regarding `O=C(O)c1cccc(-n2cnc3cc(C(F)(F)F)ccc32)c1` [compound 20, 3-[5-(trifluoromethyl)-1H-benzimidazol-1-yl]benzoic acid], the inhibition at 10 mg/kg stood at 89%.

As to `Cc1nc2cc(C(F)(F)F)ccc2n1-c1cccc(C(=O)O)c1` [compound 21, 3-[2-methyl-5-(trifluoromethyl)-1H-benzimidazol-1-yl]benzoic acid], the inhibition at 10 mg/kg was 97%.

For the molecule `CCCc1nc2cc(C(F)(F)F)ccc2n1-c1cccc(C(=O)O)c1` [compound 23, 3-[2-propyl-5-(trifluoromethyl)-1H-benzimidazol-1-yl]benzoic acid], the inhibition at 10 mg/kg was determined as 96%.

As for `Cc1cccc(-c2nc3cc(C(F)(F)F)ccc3n2-c2cccc(C(=O)O)c2)c1` [compound 36, 3-[2-(3-methylphenyl)-5-(trifluoromethyl)-1H-benzimidazol-1-yl]benzoic acid], the inhibition at 10 mg/kg was 45%.

As for `O=C(O)c1cccc(-n2c(Cc3ccccc3)nc3cc(C(F)(F)F)ccc32)c1` [compound 38, 3-[2-benzyl-5-(trifluoromethyl)-1H-benzimidazol-1-yl]benzoic acid], the inhibition at 10 mg/kg came to 66%.

For `O=C(O)c1cccc(-n2c(Cc3cccc(F)c3)nc3cc(C(F)(F)F)ccc32)c1` [compound 39, 3-[2-(3-fluorobenzyl)-5-(trifluoromethyl)-1H-benzimidazol-1-yl]benzoic acid], the inhibition at 10 mg/kg turned out to be 31%.

For the molecule `O=C(O)c1cccc(-n2c(Cc3ccc(F)cc3)nc3cc(C(F)(F)F)ccc32)c1` [compound 40, 3-[2-(4-fluorobenzyl)-5-(trifluoromethyl)-1H-benzimidazol-1-yl]benzoic acid], the inhibition at 10 mg/kg turned out to be 49%.

On to `O=C(O)c1cccc(-n2c(Cc3ccc(Cl)cc3)nc3cc(C(F)(F)F)ccc32)c1` [compound 41, 3-[2-(4-chlorobenzyl)-5-(trifluoromethyl)-1H-benzimidazol-1-yl]benzoic acid], for which the inhibition at 10 mg/kg turned out to be 45%.

Regarding `O=C(O)c1cccc(-n2c(COc3ccc(F)cc3)nc3cc(C(F)(F)F)ccc32)c1` [compound 45], the inhibition at 10 mg/kg stood at 94%.

These data come from US20110282066A1, “SCREENING METHOD FOR SUBSTANCE USEFUL AS AGENT FOR TREATING PROSTATE CANCER” (priority 2009, published 2011).
